Test results from PubChem BioAssay (NCI).
Where “and” joins values, the source holds several entries; their conditions need not be identical. Equal entries are not always repeated.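 Five compound concentrations were applied to cells in 96-well plates for 48 hours; endpoints were derived by simple linear interpolation of the resulting dose-response curve. GI50 = concentration required for 50% inhibition of growth. TGI denotes the concentration required for complete inhibition of growth.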

Key:
Assay in all cases: growth of human tumour cells (NCI), 48 h
786-0 renal = test system: 786-0 renal
A549 NSCLC = test system: A549 NSCLC
IGROV1 ovarian = test system: IGROV1 ovarian
K-562 leukemia = test system: K-562 leukemia
NCI-H226 lung = test system: NCI-H226 lung
NCI-H460 lung = test system: NCI-H460 lung
OVCAR-5 ovarian = test system: OVCAR-5 ovarian
SK-MEL-5 melanoma = test system: SK-MEL-5 melanoma
SN12C renal = test system: SN12C renal
UO-31 renal = test system: UO-31 renal

Row | SMILES | TGI (786-0 renal) | TGI (A549 NSCLC) [µM] | TGI (IGROV1 ovarian) | TGI (K-562 leukemia) [µM] | TGI (NCI-H226 lung) [µM] | TGI (NCI-H460 lung) | TGI (OVCAR-5 ovarian) [µM] | TGI (SK-MEL-5 melanoma) [µM] | TGI (SN12C renal) [µM] | TGI (UO-31 renal) | GI50 (786-0 renal) [µM] | GI50 (A549 NSCLC) [µM] | GI50 (IGROV1 ovarian) [µM] | GI50 (K-562 leukemia) [µM] | GI50 (NCI-H226 lung) [µM] | GI50 (NCI-H460 lung) [µM] | GI50 (OVCAR-5 ovarian) [µM] | GI50 (SK-MEL-5 melanoma) [µM] | GI50 (SN12C renal) [µM] | GI50 (UO-31 renal) [µM]
1 | O=C(O)c1[nH]c(C(=O)O)c(CC(F)(F)C(F)(F)C(F)(F)F)c1CC(F)(F)C(F)(F)C(F)(F)F | > 100 µM | > 100 | > 100 µM | > 100 | > 100 | > 100 µM | > 100 | > 100 | > 100 | > 100 µM | – | – | – | – | – | – | – | – | – | –
2 | Cn1c(=O)c2c(nc3n2CCC(=O)N3)n(C)c1=O | > 100 µM | > 100 | > 100 µM | > 100 | > 100 | > 100 µM | > 100 | > 100 | > 100 | > 100 µM | – | – | – | – | – | – | – | – | – | –
3 | O=C(/C=C/c1ccc([N+](=O)[O-])o1)NNC(=O)c1cc2ccccc2cc1O | 3.47 µM | > 100 | > 100 µM | > 100 | 34.1 | > 100 µM | > 100 | 2.04 | > 100 | 3.78 µM | 1.54 | 3.95 | 3.07 | 1.41 | 3.51 | 2.82 | 13 | 0.656 | 1.49 | 1.2
4 | NC(N)=N/N=C/c1c(-c2cc(Cl)sc2Cl)nc2n1CCS2 | 15.6 µM | 22 | > 50 µM | 43.7 | 16.8 | > 50 µM | 14.7 | 18.2 | 14.2 | > 50 µM | 8.12 | 9.57 | 16.4 | 16 | 8.31 | 25.5 | 7.87 | 10.1 | 7.18 | 17.3
5 | [Cl][Sn]([c]1ccccc1)[c]1ccccc1 | 12.8 µM | 36.2 | 43.7 µM | 7.31 | 29.6 | 38.7 µM | 27.3 | 11.2 | 22.9 | 30.9 µM | 3.79 | 17.5 | 17.7 | 2.14 | 15.8 | 18.3 | 13.6 | 3.35 | 9.18 | 17.2
6 | CCCCS(=N)(=O)CC[C@H](N)C(=O)O (some centres undefined) | 434 µM and > 2460 µM | > 10000 | 4980 µM and 6370 µM | > 10000 | > 10000 | 5000 µM and > 10000 µM | > 10000 | > 10000 | > 10000 | 2700 µM and > 10000 µM | – | > 8030 | 336 | 11.3 | > 10000 | > 3940 | > 10000 | > 10000 | > 10000 | > 10000
7 | Cc1c(C(=O)CC(=O)C(=O)NC2C3CC4CC(C3)CC2C4)[n+](=O)c2ccccc2n1[O-] (centres undefined) | > 100 µM | > 100 | > 100 µM | > 100 | > 100 | > 100 µM | > 100 | > 100 | > 100 | > 100 µM | – | – | – | – | – | – | – | – | – | –
